Literature values as cited in US7737133B2, “Formulations and methods of treating inflammatory bowel disease” (AGI Therapeutics Ltd., priority 2003, dated 2010).

Experiments:
[1] = compared with 5-ASA
[2] = reportedly; Ginsberg et al.

SMILES | systemic absorption of 5-ASA or its acetylated form (after cleavage of olsalazine in the colon) | absorbed intact from the gut (olsalazine, conventional powder capsule) | aqueous stability [1] | nephrotoxicity [2]
O=C(O)c1cc(N=Nc2ccc(O)c(C(=O)O)c2)ccc1O [olsalazine, 5,5′-azo-bis salicylic acid] | approximately 20% | 2.4% |  | 
Nc1ccc(C(=O)O)c(O)c1 [Example 4-ASA, 4-aminosalicylic acid] |  |  | higher aqueous stability | absence of nephrotoxicity
